# Measured values published in PubChem BioAssay AID1963972 (Molecular Pharmacology Branch, DTP, NCI, 2024).
# Tested on: 945468-187-T-J2-PDC spheroids viability
# Experiment: Anticancer human tumor 945468-187-T-J2-PDC patient-derived rectal carcinoma cell line growth inhibition [PI3K]
# Details: spheroids with HUVEC and MSC; for IC50: curve of first compound; for viability, T/C: stronger effect = lower value
# Excerpt: Combinatorial screen of targeted agents with the PI3K inhibitors inavolisib, alpelisib, duvelisib, and copanlisib in multi-cell type tumor spheroids
# A high-throughput screen of multi-cell type tumor spheroids was designed to identify active combinations of targeted small molecules and PI3K pathway inhibitors. Complex spheroids include a stromal component modeled by human endothelial cells (HUVEC) and fibroblasts modeled by human mesenchymal stem cells (MSCs). The concentration ranges selected for each drug and investigational agent were based upon clinically achievable concentrations if the clinical Cmax of the agent was known.
# Compounds. The drugs and investigational agents: inavolisib (NSC800729), alpelisib (NSC765974), duvelisib (NSC772469), copanlisib (NSC816437), ipatasertib (NSC767898), afuresertib (NSC778305), talazoparib (NSC767125), sapanisertib (NSC764658), selumetinib (NSC741078), tovorafenib (DAY101, NSC766906), vemurafenib (NSC761431), ravoxertinib (NSC781343), sotorasib (NSC818433), MRTX1133 (NSC 836407), abemaciclib (NSC 768073), palbociclib (NSC758247), venetoclax (NSC 766270), SY5609 (NSC837396), enzalutamide (NSC755605), and darolutamide (NSC825331), were obtained from the National Cancer Institute (NCI) Developmental Therapeutics Program Chemical Repository. The FDA-approved anticancer drug set is available from the NCI Developmental Therapeutics Program. […] The stock solutions were prepared in dimethyl sulfoxide (DMSO, Sigma-Aldrich, St. Louis, MO, cat. D2650) at 800-fold the tested concentration and stored at -70 degrees C prior to their use. All drugs and investigational agents were tested over a range starting from a high concentration at or near the clinical Cmax and decreasing in half-log increments. If the clinical Cmax for an agent had not been determined, the highest concentration tested was 10 microM.
# Cell Culture. All cells were maintained in an incubator at 37 degrees C and 5% CO2 with 95% humidity. The PDC lines were cultured according to standard operating procedures established by the NCI PDMR (https://pdmr.cancer.gov/sops/default.htm). All PDCs were thawed and cultured in Matrigel-coated flasks prepared with a working solution of 1X Ham's F-12 nutrient mix, without supplementation (Invitrogen, Waltham, MA, cat. 11765054), 100 U/mL penicillin-streptomycin (Invitrogen, cat. 15140122), and 2.5% Matrigel (Corning Inc., Corning, NY, cat. 354248) for the first three passages. The 354836-022-R-J1-PDC, 475296-252-R-J1-PDC, and 997726-040-R-J2-PDC lines were cultured in 6A media, which includes advanced DMEM/F-12 (Thermo Fisher Scientific, cat. 12634028), 10 mM HEPES (Thermo Fisher Scientific, cat. 15630080), 1X GlutaMAX supplement (Thermo Fisher Scientific, cat. 35050061), 0.1 mg/mL primocin (InvivoGen, San Diego, CA, cat. ant-pm-2), 10% defined fetal bovine serum, heat inactivated (HyClone Laboratories Inc., Logan, UT, cat. SH30070.03HI), 50% L-WRN conditioned media (ATCC, cat. CRL-3276), 1.25 mM N-Acetyl-L-cysteine (Sigma-Aldrich, cat. A9165), 10 mM nicotinamide (Sigma-Aldrich, cat. N0636), 1X B-27 supplement (Thermo Fisher Scientific, cat. 17504044), 1X N-2 supplement (Thermo Fisher Scientific, cat. 17502048), and 10 microM Y-27632 dihydrochloride (Tocris Bioscience, Bristol, United Kingdom, cat. 1254). The 624824-186-R-J2-PDC line was cultured in 6C/Colon 1B media, which includes all 6A media components plus 50 ng/mL human EGF recombinant protein (Thermo Fisher Scientific, cat. PHG0311). […]
# 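Note: spheroids exposed to compounds for seven days before reading.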
smiles,measurement,setting,value
Cn1cnc2c(F)c(Nc3ccc(Br)cc3Cl)c(C(=O)NOCCO)cc21 + CC(Nc1ccc2c(c1)OCCn1cc(N3C(=O)OCC3C(F)F)nc1-2)C(N)=O,IC50,second compound 0.00316 µM,> 3 µM
same,IC50,second compound 0.01 µM,> 3 µM
same,IC50,second compound 0.0316 µM,> 3 µM
same,IC50,second compound 0.1 µM,> 3 µM
same,IC50,second compound 0.316 µM,> 3 µM
same,IC50,second compound 1 µM,0.714 µM
same,"viability, T/C","second compound 0.00316 µM, first compound 0.00949 µM",121%
same,"viability, T/C","second compound 0.00316 µM, first compound 0.03 µM",86.4%
same,"viability, T/C","second compound 0.00316 µM, first compound 0.0949 µM",114%
same,"viability, T/C","second compound 0.00316 µM, first compound 0.3 µM",75.8%
same,"viability, T/C","second compound 0.00316 µM, first compound 0.949 µM",70.7%
same,"viability, T/C","second compound 0.00316 µM, first compound 3 µM",74.5%
same,"viability, T/C","second compound 0.01 µM, first compound 0.00949 µM",92.2%
same,"viability, T/C","second compound 0.01 µM, first compound 0.03 µM",101%
same,"viability, T/C","second compound 0.01 µM, first compound 0.0949 µM",92.2%
same,"viability, T/C","second compound 0.01 µM, first compound 0.3 µM",89.4%
same,"viability, T/C","second compound 0.01 µM, first compound 0.949 µM",74.9%
same,"viability, T/C","second compound 0.01 µM, first compound 3 µM",78.5%
same,"viability, T/C","second compound 0.0316 µM, first compound 0.00949 µM",121%
same,"viability, T/C","second compound 0.0316 µM, first compound 0.03 µM",99.6%
same,"viability, T/C","second compound 0.0316 µM, first compound 0.0949 µM",112%
same,"viability, T/C","second compound 0.0316 µM, first compound 0.3 µM",93.7%
same,"viability, T/C","second compound 0.0316 µM, first compound 0.949 µM",78.8%
same,"viability, T/C","second compound 0.0316 µM, first compound 3 µM",74.5%
same,"viability, T/C","second compound 0.1 µM, first compound 0.00949 µM",88.9%
same,"viability, T/C","second compound 0.1 µM, first compound 0.03 µM",102%
same,"viability, T/C","second compound 0.1 µM, first compound 0.0949 µM",81.2%
same,"viability, T/C","second compound 0.1 µM, first compound 0.3 µM",80.4%
same,"viability, T/C","second compound 0.1 µM, first compound 0.949 µM",75.1%
same,"viability, T/C","second compound 0.1 µM, first compound 3 µM",74.2%
same,"viability, T/C","second compound 0.316 µM, first compound 0.00949 µM",69.9%
same,"viability, T/C","second compound 0.316 µM, first compound 0.03 µM",88.6%
same,"viability, T/C","second compound 0.316 µM, first compound 0.0949 µM",72.4%
same,"viability, T/C","second compound 0.316 µM, first compound 0.3 µM",75.6%
same,"viability, T/C","second compound 0.316 µM, first compound 0.949 µM",75.9%
same,"viability, T/C","second compound 0.316 µM, first compound 3 µM",66.1%
same,"viability, T/C","second compound 1 µM, first compound 0.00949 µM",75.7%
same,"viability, T/C","second compound 1 µM, first compound 0.03 µM",72%
same,"viability, T/C","second compound 1 µM, first compound 0.0949 µM",72.8%
same,"viability, T/C","second compound 1 µM, first compound 0.3 µM",65.2%
same,"viability, T/C","second compound 1 µM, first compound 0.949 µM",45%
same,"viability, T/C","second compound 1 µM, first compound 3 µM",37.6%
